The values below are quoted from earlier work in patent US9050351B2, “Topical compositions designed to maintain or restore the integrity of the mucous membranes” (RICEFARMA S.R.L., priority 2010, dated 2015).

For data set [1] the following is noted: as disclosed in WO93/19730.

Turning to `C[N+](C)(C)CCOP(=O)([O-])OC[C@H](O)CO` [choline alfoscerate, L-alpha-glycerylphosphorylcholine], the “solubility in water and ethanol” value is given as “highly soluble”. For the same compound, in data set [1], the “incidence of skin irritation, eye irritation and skin sensitisation” value is on record as “low”; the systemic toxicity result is reported as “practically devoid”; the topical tolerability result is “marked”.
